Data taken from patent US20070128217A1 (priority 2003, published 2007).

Key:
[1] = tested on: antibodies in sera from SARS patients (sera 1a, 1b, 2, 6, 37, 62, London, SARS-yellow, SARS-green); assay type: binding, human; set-up: Binding of serum 6 to linear peptides of protein X1 of SARS-CoV Urbani / Binding of serum 37 to linear peptides of protein X1 of SARS-CoV Urbani / Binding of serum 6 to looped/cyclic peptide (PEPSCAN-ELISA) / Binding of serum 37 to looped/cyclic peptide (PEPSCAN-ELISA) / Binding of serum 37 to looped/cyclic peptides of protein X1 of SARS-CoV Urbani / Binding of serum 6 to linear peptides of protein X2 / Binding of serum 37 to linear peptides of protein X2 / Binding of serum 37 to looped/cyclic peptides of protein X2 of SARS-CoV Urbani / Binding of serum 6 to linear peptides of protein M of SARS-CoV Urbani / Binding of serum 37 to linear peptides of protein M of SARS-CoV Urbani / Binding of serum 6 to looped/cyclic peptides of protein M of SARS-CoV Urbani / Binding of serum 37 to looped/cyclic peptides of protein M of SARS-CoV Urbani / Binding of serum 6 to linear peptides of protein X3 of SARS-CoV Urbani / Binding of serum 37 to linear peptides of protein X3 of SARS-CoV Urbani / Binding of serum 37 to looped/cyclic peptides of protein X3 of SARS-CoV Urbani / Binding of serum 6 to linear peptides of protein X4 of SARS-CoV Urbani / Binding of serum 37 to linear peptides of protein X4 of SARS-CoV Urbani / Binding of serum 37 to looped/cyclic peptides of protein X4 of SARS-CoV Urbani / Binding of serum 6 to linear peptides of protein X5 of SARS-CoV Urbani / Binding of serum 37 to linear peptides of protein X5 of SARS-CoV Urbani / Binding of serum 37 to looped/cyclic peptides of protein X5 of SARS-CoV Urbani / Binding of serum 6 to linear peptides of protein N of SARS-CoV Urbani / Binding of serum 37 to linear peptides of protein N of SARS-CoV Urbani / Binding of serum 6 to linear peptide (PEPSCAN-ELISA) / Binding of serum 1a to looped/cyclic peptides of protein N of SARS-CoV Urbani / Binding of serum 1b to looped/cyclic peptides of protein N of SARS-CoV Urbani / Binding of serum 2 to looped/cyclic peptides of protein N of SARS-CoV Urbani / Binding of serum 6 to looped/cyclic peptides of protein N of SARS-CoV Urbani / Binding of serum 37 to looped/cyclic peptides of protein N of SARS-CoV Urbani / Binding of serum 62 to looped/cyclic peptides of protein N of SARS-CoV Urbani / Binding of serum London to looped/cyclic peptides of protein N of SARS-CoV Urbani / Binding of serum SARS-green to looped/cyclic peptides of protein N of SARS-CoV Urbani: unit not given here
[2] = tested on: rabbit serum obtained by immunizing a rabbit with the SARS-CoV strain Frankfurt 1; assay type: binding; set-up: Binding of a rabbit serum to linear peptides / Binding of a rabbit serum to looped peptides / Rabbit serum linear peptides / Rabbit serum looped peptides / Binding of a rabbit serum to linear peptides of protein N of SARS-CoV Urbani (Rabbit serum linear peptides) / Binding of a rabbit serum to looped/cyclic peptides of protein N of SARS-CoV Urbani (Rabbit serum looped peptides): unit not given here
[3] = tested on: recombinant human anti-SARS-CoV antibody 03-018; assay type: binding; set-up: Binding of antibody 03-018 to linear peptides of the N protein of SARS-CoV Urbani / Binding of antibody 03-018 to looped/cyclic peptides of the N protein of SARS-CoV Urbani: unit not given here
[4] = tested on: control sera (pooled serum of ten healthy LUMC hospital workers; commercial negative donor pooled serum from the Dutch bloodbank); assay type: binding, human; set-up: Binding of Control serum LUMC to linear peptides / Binding of Control serum Blood-bank to linear peptides / Binding of Control serum LUMC to looped peptides / Binding of Control Serum Blood-Bank to Looped peptides / Binding of Control serum LUMC to linear peptides of the protein M of SARS-CoV Urbani / Binding of Control serum Blood-bank to linear peptides of the protein M of SARS-CoV Urbani / Binding of Control serum LUMC to looped peptides of the protein M of SARS-CoV Urbani / Binding of Control Serum Blood-Bank to Looped peptides of the protein M of SARS-CoV Urbani: unit not given here

| Sequence | Binding of serum 1a to linear peptides of protein N of SARS-CoV Urbani [1] | Binding of serum 1a to looped/cyclic peptides of protein N of SARS-CoV Urbani [1] | Binding of serum 1b to linear peptides of protein N of SARS-CoV Urbani [1] | Binding of serum 1b to looped/cyclic peptides of protein N of SARS-CoV Urbani [1] | Binding of serum 2 to linear peptides of protein N of SARS-CoV Urbani [1] | Binding of serum 2 to looped/cyclic peptides of protein N of SARS-CoV Urbani [1] | Binding of serum 6 to linear peptides of protein N of SARS-CoV Urbani [1] | Binding of serum 6 to looped/cyclic peptides of protein N of SARS-CoV Urbani [1] | Binding of serum 37 to linear peptides of protein N of SARS-CoV Urbani [1] | Binding of serum 37 to looped/cyclic peptides of protein N of SARS-CoV Urbani [1] | Binding of serum 62 to linear peptides of protein N of SARS-CoV Urbani [1] | Binding of serum 62 to looped/cyclic peptides of protein N of SARS-CoV Urbani [1] | Binding of serum London to linear peptides of protein N of SARS-CoV Urbani [1] | Binding of serum London to looped/cyclic peptides of protein N of SARS-CoV Urbani [1] | Binding of serum SARS-green to linear peptides of protein N of SARS-CoV Urbani [1] | Binding of serum SARS-green to looped/cyclic peptides of protein N of SARS-CoV Urbani [1] | Binding of serum SARS-yellow to linear peptides of protein N of SARS-CoV Urbani [1] | Binding of serum SARS-yellow to looped/cyclic peptides of protein N of SARS-CoV Urbani [1] | Binding of Control Serum Blood-Bank to Looped peptides [4] | Binding of Control serum Blood-bank to linear peptides [4] | also measured |
| --- | --- | --- | --- | --- | --- | --- | --- | --- | --- | --- | --- | --- | --- | --- | --- | --- | --- | --- | --- | --- | --- |
| NGARPKQRRPQGLPN | 0.2 | 0.3 | 0.1 | 0.2 | 0.2 | 0.3 | 0.1 | 0.4 | 0.7 | 0.6 | 0.5 | 0.5 | 0.4 | 0.5 | 0.3 | 0.4 | 0.5 | 0.4 | 0.6 | 0.7 | Binding of a rabbit serum to linear peptides of protein N of SARS-CoV Urbani (Rabbit serum linear peptides) [2]: 0.1; Binding of a rabbit serum to looped/cyclic peptides of protein N of SARS-CoV Urbani (Rabbit serum looped peptides) [2]: 0.3; Binding of antibody 03-018 to linear peptides of the N protein of SARS-CoV Urbani [3]: 0.1; Binding of antibody 03-018 to looped/cyclic peptides of the N protein of SARS-CoV Urbani [3]: 0.3; Binding of Control serum LUMC to linear peptides [4]: 0.6; Binding of Control serum LUMC to looped peptides [4]: 0.6 |
| NGGRNGARPKQRRPQ | 0.2 | 0.3 | 0.1 | 0.2 | 0.2 | 0.3 | 0.2 | 0.3 | 0.7 | 0.6 | 0.7 | 0.5 | 0.5 | 0.3 | 0.5 | 0.4 | 0.5 | 0.5 | 0.7 | 0.6 | Binding of a rabbit serum to linear peptides of protein N of SARS-CoV Urbani (Rabbit serum linear peptides) [2]: 0.1; Binding of a rabbit serum to looped/cyclic peptides of protein N of SARS-CoV Urbani (Rabbit serum looped peptides) [2]: 1.1; Binding of antibody 03-018 to linear peptides of the N protein of SARS-CoV Urbani [3]: 0.2; Binding of antibody 03-018 to looped/cyclic peptides of the N protein of SARS-CoV Urbani [3]: 0.3; Binding of Control serum LUMC to linear peptides [4]: 0.6; Binding of Control serum LUMC to looped peptides [4]: 0.7 |
| NGPQSNQRSAPRITF | 0.2 | 0.3 | 0.1 | 0.2 | 0.2 | 0.5 | 0.2 | 0.3 | 0.8 | 0.8 | 0.5 | 0.6 | 0.4 | 0.5 | 0.4 | 0.5 | 0.5 | 0.6 | 0.7 | 0.8 | Recognition of the peptide by the rabbit serum [2]: also recognized; Recognition of the peptide by antibody 03-018 [3]: recognized; Binding of Control serum LUMC to linear peptides [4]: 0.6; Binding of Control serum LUMC to looped peptides [4]: 0.8 |
| NNNAATVLQLPQGTT | 0.2 | 0.4 | 0.1 | 0.3 | 0.2 | 0.5 | 0.1 | 0.2 | 0.7 | 0.6 | 0.5 | 0.5 | 0.5 | 0.5 | 0.4 | 0.5 | 0.7 | 0.4 | 0.7 | 0.8 | Binding of a rabbit serum to linear peptides of protein N of SARS-CoV Urbani (Rabbit serum linear peptides) [2]: 0.1; Binding of a rabbit serum to looped/cyclic peptides of protein N of SARS-CoV Urbani (Rabbit serum looped peptides) [2]: 0.4; Binding of antibody 03-018 to linear peptides of the N protein of SARS-CoV Urbani [3]: 0.1; Binding of antibody 03-018 to looped/cyclic peptides of the N protein of SARS-CoV Urbani [3]: 0.3; Binding of Control serum LUMC to linear peptides [4]: 0.7; Binding of Control serum LUMC to looped peptides [4]: 0.8 |
